Experimental data from patent US20170152285A1, “EXTRACTING METHOD OF KUGUACIN, PHARMACEUTICAL COMPOSITION COMPRISING THE KUGUACIN AND USE THEREOF” (priority 2015, published 2017).

Key:
IL-8 = assay: Anti-inflammatory activity assay, IL-8 ELISA, THP-1 co-cultured with P. gingivalis; format: cell-based, Human; conditions: for inhibiting the expression of IL-8 induced by P. gingivalis: 1 μM to 5 μM, dose-dependent
Procedure: (§1) P. gingivalis (ATCC 33277/BCRC 14417) purchased from Bioresource Collection and Research Center of Food Industry Research and Development Institute in Hsinchu. P. gingivalis was incubated with TSB medium in an anaerobic incubator at 37° C. in an atmosphere of 86% of N2, 10% of CO2 and 4% of H2. The TSB medium comprises 15 g of Tryptic Soy broth (Becton, Dicksinson and company, U.S.A.), 2.5 g of yeast extract, 0.5 mL of Hemin and 0.1 mL of Vitamin K dissolved in 500 mL of deionized H2O.
(§2) THP-1 cell line (2×10^6 cells/mL) cultured by the method described in Example 3 was placed into a 96-well plate, and then 100 μL of RPMI medium without P. gingivalis was added or 0.1% dimethyl sulfoxide (DMSO) containing P. gingivalis with its multiplicity of infection (MOI) of 10 was added as negative controls. Different concentrations of samples from Examples 1 and 2 were added or luteolin (10 μM) was added as positive control. After co-culturing in an incubator at 37° C. in 5% of CO2 for 24 hours, the supernatants were collected. Then, the levels of IL-6 and IL-8 were analyzed by commercial ELISA kits for IL-6 and IL-8 (Invitrogen).
(§3) The term “MOI” is multiplicity of infection which means the number of the bacteria infecting each cell (the number of bacteria/the number of cells). For example, MOI=1 refers to every cell was infected by one bacterial colony.

ERK = assay: Western blot of phosphorylated ERK in THP-1 induced by P. gingivalis; format: cell-based, Human; conditions: 10 μM and 20 μM, induced by P. gingivalis for 30 mins
Procedure: (§4) To analyze the effect of the M. charantia extract on phosphorylation of MAPK proteins, THP-1 cell line cultured by the method described in Example 3 (2×10^6 cells/mL) was inoculated in 6-cm petridishes. Every 200 μL of cell culture was added 800 μL of fresh media containing DMSO with P. gingivalis (MOI=10), different concentrations of samples from Examples 1 and 2 or luteolin ([…]) and then co-cultured in a incubator at 37° C. in 5% of CO2 for 30 mins. Next, the cells were collected and centrifuged to remove the supernatant. After adding phosphate buffer solution (PBS), the collected cells were shook and washed repeatedly for 3 times. Then 100 μL of 1× lysis buffer was added in. The mixture was centrifuged at 12,000 rpm and 4° C. for 15 mins, and the supernatant was collected. The protein was quantified to the identical concentration. After protein electrophoresis was conducted, Western blot was conducted to analyze the level of phosphorylated ERK, JNK and p38 (i.e. p-ERK, p-JNK and p-p38).

IL-6 [1] = assay: Anti-inflammatory activity assay, IL-6 ELISA, THP-1 co-cultured with P. gingivalis; format: cell-based, Human; conditions: for inhibiting the expression of IL-6 induced by P. gingivalis: 1 μM to 5 μM, dose-dependent
Procedure: as §1, §2, §3

IL-6 [2] = assay: Periodontitis mouse model, IL-6 mRNA in gum tissue; format: in vivo, C57BL/6 mice; conditions: 5 μg injected into gum tissue, day 14
Procedure: (§5) To assess the effect of kuguacin on anti-inflammation in vivo, 6-week old C57BL/6 male mice were used in the present embodiment. The mice were purchased from Laboratory Animal Center of National Taiwan University, and fed with commercial chow diet and drinking water. After free access of food for 7 days, the mice were grouped for experiments, five animals for each group.
(§6) The concentration of P. gingivalis was adjusted to 1×10^9 CFU/mL by steriled PBS, then centrifuged at 10,000 rpm for 5 min. After removing the supernatant, the pellet was heated in water bath at 80° C. for 30 mins.
(§7) According to the method provided in the reference by Molon et al. to establish animal experiment model. Heat-killed P. gingivalis was injected into the gum tissue of C57BL/6 mice to cause inflammation. The mice were anesthetized by ethylether. Samples and bacteria solution were withdrawn using 0.3-mL insulin syringe needle. 10 μL of bacteria and samples were injected into the gum tissue of the mice. If blisters appeared, the injection was successful. […]
(§8) After sacrificing the mice at the 14th day of the experiment, the gums of lower jaw of the mice were sampled and the gene expressions of COX-2, IL-6 and TNF-α therein were analyzed.

COX-2 = assay: Periodontitis mouse model, COX-2 mRNA in gum tissue; format: in vivo, C57BL/6 mice; conditions: 5 μg injected into gum tissue, day 14
Procedure: as §5, §6, §7, §8

p-ERK, p-JNK and p-p38 = assay: Western blot of phosphorylated MAPK proteins in THP-1 induced by P. gingivalis; format: cell-based, Human; conditions: 1 μM to 5 μM, induced by P. gingivalis for 30 mins, dose-dependent
Procedure: as §4

TNF-α = assay: Periodontitis mouse model, TNF-α mRNA in gum tissue; format: in vivo, C57BL/6 mice; conditions: 5 μg injected into gum tissue, day 14
Procedure: as §5, §6, §7, §8

iNOS = assay: Periodontitis mouse model, iNOS mRNA in gum tissue; format: in vivo, C57BL/6 mice; conditions: injected into gum tissue with P. gingivalis, day 14

Row | Structure (SMILES) | inhibiting the expression of IL-8 by THP-1 cell line (IL-8; 5 μM to 20 μM) | inhibiting the phosphorylation of ERK (ERK) | inhibiting the expression of IL-6 by THP-1 cell line (IL-6 [1]; 5 μM to 20 μM) | mRNA expression of IL-6 in gum tissue, compared to group induced by P. gingivalis as 100% (IL-6 [2]) [%] | inhibiting the expression of IL-8 induced by P. gingivalis (IL-8) | mRNA expression of COX-2 in gum tissue, compared to group induced by P. gingivalis as 100% (COX-2) [%] | inhibiting the expression of IL-6 induced by P. gingivalis (IL-6 [1]) | phosphorylation of the signal transduction proteins (p-ERK, p-JNK, p-p38) in THP-1 cells (p-ERK, p-JNK and p-p38) | mRNA expression of TNF-α in gum tissue, compared to group induced by P. gingivalis as 100% (TNF-α) [%] | mRNA expression of iNOS in gum tissue (iNOS)
1 | C=C(C)/C=C/C[C@@H](C)[C@H]1CC[C@@]2(C)[C@@H]3C=C[C@@]45O[C@@H](O)[C@]3(CC[C@]12C)[C@@H]4CC[C@H](O)C5(C)C [fraction 532, 5β,19-epoxycucurbita-6,23(E),25(26)-triene-3β,19(R)-diol] | effective on inhibiting | effective in inhibiting | effective on inhibiting |  |  |  |  |  |  | 
2 | CC(CC=CC(C)(C)O)C1CCC2(C)C3C=CC45OC(O)C3(CCC12C)C4CCC(O)C5(C)C (centres unmarked) [fraction 5211, 5,19-epoxycucurbita-6,23-diene-3,19,25-triol] |  |  |  | 34 | effective on inhibiting | 31 | effective on inhibiting | reduced | 40 | increase
3 | C[C@H](C/C=C/C(C)(C)O)[C@H]1CC[C@@]2(C)[C@@H]3[C@@H](O)C=C4[C@@H](CC[C@H](O)C4(C)C)[C@]3(C=O)CC[C@]12C [fraction 5212, 3,7,25-trihydroxycucurbita-5,23-dien-19-al] |  |  |  | 67 | effective on inhibiting | 49 | effective on inhibiting | reduced | 67 | increase
